Paper PMC9104802 (Cells, 2022)

Assays:
[1] = test system: Telo24 (human telomeric oligonucleotide, telomeric G-quadruplex) (DNA, G4) TTAGGGTTAGGGTTAGGGTTAGGG; assay: microscale thermophoresis (MST); settings: K+ 100 mM KCl (plus potassium phosphate); 10 mM K2HPO4/KH2PO4 pH 7.0; 30 min; 1 μM DNA; SC 0.15625-320 μM; apparent
[2] = target: T1, hTERT (telomerase reverse transcriptase) (Homo sapiens, UniProt O14746); assay: fluorescence polarization with His-hTRBD, BSA negative control; supported by TRAP inhibition of reconstituted GST-opTERT/hTERC and immunoprecipitated FLAG-hTERT telomerase (IC50 […]); assay type: binding
T1 construct: gene TERT
T1 sequence (O14746 325-550 limits assumed): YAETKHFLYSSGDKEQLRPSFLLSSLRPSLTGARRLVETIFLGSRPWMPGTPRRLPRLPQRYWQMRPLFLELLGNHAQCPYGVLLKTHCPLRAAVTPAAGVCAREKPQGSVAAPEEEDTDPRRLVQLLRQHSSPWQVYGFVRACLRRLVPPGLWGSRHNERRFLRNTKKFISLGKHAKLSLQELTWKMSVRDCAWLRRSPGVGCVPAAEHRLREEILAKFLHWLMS

SMILES: C[n+]1cc2c3c(ccc2c2ccc4cc5c(cc4c21)OCO5)OCO3 [SC, Sanguinarine chloride]
- EC50 [1]: 120 µM
- EC50 [2]: 24.8 µM
